Assay results from patent US8975015B2, “Antimicrobial compounds” (priority 2009, dated 2015).
In brackets after ≈: the same amount, converted by molar mass.

How the values were obtained:
Assay in all cases: microbe, parasite or virus in culture
[1] = system: strains of TB that are resistant to Kanamycin; format: cell-based; settings: Mycobacterium tuberculosis
[2] = system: strains of TB that are resistant to Isoniazid; format: cell-based; settings: Mycobacterium tuberculosis
[3] = system: strains of TB that are resistant to Rifampin; format: cell-based; settings: Mycobacterium tuberculosis
[4] = system: Mycobacterium tuberculosis (replicating TB); format: cell-based
[5] = system: non-replicating TB; format: cell-based, Mycobacterium tuberculosis

Compound: O=C1C=Cc2nocc2/C1=C1/Nc2ccccc2C1=O [Example P1, 4-(3-oxoindolin-2-ylidene)benzo[c]isoxazol-5(4H)-one]
- MIC [1]: 0.148 µg/mL (≈ 0.56 µM)
- MIC [2]: 0.138 µg/mL (≈ 0.522 µM)
- MIC [3]: 0.239 µg/mL (≈ 0.904 µM)
- MIC MABA [4]: 0.15 µg/mL (≈ 0.568 µM)
- MIC LORA [5]: 1.833 µg/mL (≈ 6.94 µM)
